Measurements: US20140248342A1, “Fe(III) 2,4-Dioxo-1-Carbonyl Complexes For Treatment And Prophylaxis Of Iron Deficiency Symptoms And Iron Deficiency Anaemias” (Vifor (International) AG, priority 2011, published 2014)
Where two headings read alike, the source gives them in different places.

Legend:
[1] = test system: Male NMRI (SPF) mice fed a low-iron diet; assay: Iron utilization in mouse model (low-iron diet, hemoglobin and body weight increase); format: in vivo; conditions: stomach tube, 2 mg iron/kg body weight/day, days 1-5 and 8-12; utilization on day 15 calculated from hemoglobin and body weight increase
Experimental: The excellent Fe utilizations that can be accomplished through the Fe complexes according to the invention were measured by means of the following mouse model.
Male NMRI (SPF) mice (approximately 3 weeks old) were fed a low-iron diet (approx. 5 ppm iron) for approximately 3 weeks. The iron complexes were then administered to them by means of a stomach tube (2 mg iron/kg body weight/day) 2 times a day for 5 days, with an interruption of 2 days (days 1-5 and 8-12). Utilization on day 15 was calculated from the hemoglobin increase and the body weight increase in accordance with the formula
0.07=Factor for 70 ml blood per kg body weight (BW)
Hb1=Hemoglobin level (g/l) on day 1 Hb2(3)=Hemoglobin level (g/l) on day 8 (or 15) BW4=body weight (g) on day 1 BW9(14)=body weight (g) on day 8 (or 15) Hb1 Control=average hemoglobin level (g/l) on day 1 in the control group, Hb2(3) Control=average hemoglobin level (g/l) on day 8 (or 15) in the control group, BW4 Control=average body weight (g) on day 1 in the control group, BW9(14) Control=average body weight (g) on day 8 (or 15) in the control group, Fe Dos.=entire administered iron (mg Fe) over 5 or 10 days,
Δ Utilization=Fe tot. utilized (examined group)−Fe ut. Control group, utilized from food, (mg Fe)

Sprague-Dawley rats [2] = assay: Toxicity compared with Fe(acac)3: oral administration, single dose, observation until 24 h; format: in vivo; conditions: for Number of dead animals after 24 h / animals still alive after 24 hours: 6 Sprague-Dawley rats; for toxicological findings after 24 hours: Sprague-Dawley rats
Excerpt: The toxicity of the novel iron complex compounds was compared with that of tris(acetylacetonate)iron.

Sprague-Dawley rats [3] = conditions: cited from earlier work; for toxicity in animal studies (in words): literature report London, Smith 1983

Compound	Utilization n 15 d (abs. %) [1] [abs. %]	further results
Tris-(ethyl oxo(2-oxocyclopentyl)acetate)-iron(III)-complex [Example 5]	59	
Tris-(ethyl 2,4-dioxopentanoate)-iron(III)-complex [Example 1]	106	Number of dead animals after 24 h (Sprague-Dawley rats [2]; single oral dose 1600 mg/kg iron complex (170 mg/kg iron)): 0; animals still alive after 24 hours (Sprague-Dawley rats [2]; single oral dose 1600 mg/kg): 6; toxicological findings after 24 hours (Sprague-Dawley rats [2]; single oral dose 1600 mg/kg): absolutely no toxicological findings
Tris-(methyl 2,4-dioxopentanoate)-iron(III)-complex [Example 2]	94	
Tris-(ethyl oxo(2-oxocyclohexyl)acetate)-iron(III)-complex [Example 6]	65	
Tris-(2,4-dioxopentanamide)-iron(III)-complex [Example 3]	82	Number of dead animals after 24 h (Sprague-Dawley rats [2]; single oral dose 1400 mg/kg iron complex (170 mg/kg iron)): 0; animals still alive after 24 hours (Sprague-Dawley rats [2]; single oral dose 1400 mg/kg): 6; toxicological findings after 24 hours (Sprague-Dawley rats [2]; single oral dose 1400 mg/kg): absolutely no toxicological findings
CC(=O)/C=C(/C)[O-].CC(=O)/C=C(/C)[O-].CC(=O)/C=C(/C)[O-].[Fe+3] [Fe(Acac)3, tris(acetylacetonate)iron]		toxicity in animal studies (in words) (Sprague-Dawley rats [3]): highly toxic; toxicity in animal studies (in words) (Sprague-Dawley rats [3]; listed as iron(III)-(acetylacetonate)3): very toxic; Number of dead animals after 24 h (Sprague-Dawley rats [3]; single oral dose 1000 mg/kg iron complex (160 mg/kg iron), 10 animals, Lit. 1): 6
Tris-(1-(morpholin-4-yl)pentane-1,2,4-trione)-iron(III)-complex [Example 12]	75	
Tris-(N,N,5,5-tetramethyl-2,4-dioxohexanamide)-iron(III)-complex [Example 8]	72	
Tris-(N,N,5,-trimethyl-2,4-dioxohexanamid)-iron(III)-complex [Example 9]	89	
Tris-(5-methyl-1-(morpholin-4-yl)hexane-1,2,4-trione)-iron(III)-complex [Example 11]	51	
